Measurements as given in US20220387350A1, “CANNABIDIVARIN PREPARATIONS FOR USE AS A MEDICAMENT” (GW Research Limited, priority 2019, published 2022).
Values joined by “and” are separate entries in the source; they are usually repeats but may differ in a detail not shown here. Equal values may be shown once.

Tests used:
[1] = tested on: sub-chronic PCP-induced deficit in novel object recognition; assay: Novel object recognition (NOR) test after sub-chronic PCP, animal model of schizophrenia; format: in vivo, rat (female hooded-Lister)
From the text: The effect of PCP in the novel object recognition (NOR) test is a model of visual recognition memory deficits similar to those observed in schizophrenia. The atypical antipsychotics, clozapine and risperidone, can attenuate the deficit. The study was designed to determine if botanically derived purified CBDV and/or synthetic CBDV could attenuate the deficits in novel object recognition caused by administration of PCP.
Female hooded-Lister rats were used for this experiment. Rats were housed in groups of 5 under standard laboratory conditions under a 12 hr light: dark cycle, with lights on at 0700 hr. Testing was carried out in the light phase. Rats were randomly assigned to two treatment groups and treated with vehicle, n=15 (distilled water, i.p.) or Phencyclidine hydrochloride (PCP), n=75 (2 mg/kg, i.p. twice daily for 7-days). PCP was dissolved in distilled water. This was followed by a 7-day wash out period before the rats were tested following acute treatment with […], risperidone or vehicle. […]
Following the 3 minute habituation period, the rats are given two 3 minute trials (T1 and T2) which were separated by a 1 minute inter-trial interval in the home cage during which the objects were changed. Behavior in all trials was recorded on video for subsequent blind scoring. […]
The exploration time(s) of each object (A, B, familiar and novel) in each trial were recorded using two stopwatches and the following factors were calculated: total exploration time of both objects in the acquisition trial, total exploration time of both objects in the retention trial. Habituation of exploratory activity included the exploration time, as measured by the number of lines crossed, for both trials.
All data were assessed for normality using D'Agostino and Pearson normality test. Data non-normally distributed were analyzed using Kruskal-Wallis followed by planned comparisons with Dunn's correction. Normally distributed data were analyzed using one-way ANOVA followed by planned comparisons with Sidak's correction. […]

[2] = Autofluorescence excitation scan (Ensight multimodal plate reader); format: physicochemical; settings: 100 mM; for excitation peak point (first, lower-wavelength peak) / excitation peak point (second, higher-wavelength peak) / fluorescence intensity at first excitation peak / fluorescence intensity at second excitation peak: ethanol as vehicle
Experimental: (§1) Botanically derived purified CBDV (BOT) and Synthetic CBDV (SYN) were tested in duplicates at five concentrations of 0.1 mM, 0.5 mM, 1 mM, 50 mM and 100 mM in 100% DMSO or 100% Ethanol.
(§2) 200 μL of each sample or buffer were added into microplates in duplicate. Measurement has been performed on the Ensight multimodal plate reader (Perkin Elmer).
An excitation scan was used to detect the excitation peak for each test substance. The excitation scan was set from 230 to 380 nm and below the emission wavelength of 400 nm. The excitation scan was also set from 230 to 420 nm and below the emission wavelength of 440 nm. In both cases, a step increment of 2 nm was used for these scans.
Based on these analyses, the peaks of excitation wavelengths for the two tentative emission wavelengths were determined and used to identify the optimal excitation wavelength/s.

[3] = Autofluorescence emission scan (Ensight multimodal plate reader); format: physicochemical; settings: 100 mM
Experimental: as §1, §2
In order to confirm the emission peak of the test substance, an emission scan was performed using the excitation peaks identified after the excitation scan. The […] was set to start for botanically derived purified CBDV and synthetic CBDV at 20 nm above the tentative excitation values using a step increment of 2 nm. Wavelengths up to 800 nm were scanned for emission.
The wavelength giving the maximum emission for the samples was defined as the optimal emission wavelength for the chosen excitation wavelength.

[4] = cited from earlier work
[5] = emission wavelength set at 400 nm
[6] = emission wavelength set at 440 nm
[7] = DMSO as vehicle, excitation wavelength set at 328 nm
[8] = DMSO as vehicle, excitation wavelength set at 334 nm
[9] = DMSO as vehicle, excitation wavelength set at 344 nm
[10] = ethanol as vehicle, excitation wavelength set at 326 nm
[11] = ethanol as vehicle, excitation wavelength set at 340 nm

C=C(C)[C@@H]1CCC(C)=C[C@H]1c1c(O)cc(CCC)cc1O [synthetic CBDV, Cannabidivarin]
human daily amount of CBDV corresponding to the rat MED ([1]; 70 kg human, rat dose x 0.16 x 70): 224 mg/day | human equivalent dose of the rat MED ([1]; rat dose multiplied by 0.16 (FDA dose conversion guidance)): 3.2 mg/kg/day | minimal effective dose (MED) attenuating sub-chronic PCP-induced deficit in novel object recognition ([1]; rats, 2-20 mg/kg i.p., 60 min ppt, n=8-10 per group): 20 mg/kg | excitation peak point (first, lower-wavelength peak) [2, 5]: 282 nm | excitation peak point (second, higher-wavelength peak) [2, 5]: 324 nm | fluorescence intensity at first excitation peak [2, 5]: 139797 au | fluorescence intensity at second excitation peak [2, 5]: 123100 au | excitation peak point (first, lower-wavelength peak) [2, 6]: 280 nm | excitation peak point (second, higher-wavelength peak) [2, 6]: 326 nm | fluorescence intensity at first excitation peak [2, 6]: 39433 au | fluorescence intensity at second excitation peak [2, 6]: 41443 au | excitation peak points ([2]; pure DMSO as vehicle, emission wavelength set at 400 nm): 282 nm and 326 nm | emission peak point [3, 7]: 394 nm | fluorescence intensity at emission peak [3, 7]: 264597 au | emission peak point [3, 8]: 392 nm | fluorescence intensity at emission peak [3, 8]: 201880 au | emission peak point [3, 9]: 390 nm | fluorescence intensity at emission peak [3, 9]: 158071 au | emission peak point [3, 10]: 390 nm | fluorescence intensity at emission peak [3, 10]: 67541 au | emission peak wavelength [3, 11]: 378 nm | fluorescence intensity at peak [3, 11]: 29009 au

C=C(C)[C@@H]1CCC(C)=C[C@H]1c1c(O)cc(CCC)cc1O [CBDV, 2-[(1R,6R)-3-Methyl-6-(1-methylethenyl)-2-cyclohexen-1-yl]-5-propyl-1,3-benzenediol]
solubility in organic solvents ([4]; organic solvents): soluble | solubility in water ([4]; water): insoluble
